In patent US20030139467A1, “Diuretics containing y-tocotrienol” (priority 2000, published 2003):

Columns and labels:
[1] = Amount of γ-CEHC excreted in urine after oral γ-tocotrienol or γ-tocopherol in vitamin E-deficient rats; assay type: in vivo, Sprague-Dawley strain male rats; settings: oral 10 mg/0.5 ml in stripped corn oil, total over 48 hours, versus γ-tocopherol in the same amount, FIG. 2
Procedure: (§1) Seven-week-old Sprague-Dawley strain male rats, purchased from Nippon Clare Co., Ltd., were preliminarily bred with solid feed CE-2 (Nippon Clare Co., Ltd.) for 1 week and then bred with vitamin E-deficient feed for 4 weeks. The rats were placed in a stainless steel cage/rat, and the breeding room was maintained at a temperature of 22±1° C. in 50 % humidity. The animals were allowed feed and water ad libitum.
(§2) The feed was prepared by adding 10% corn oil (stripped corn oil) from which vitamin E had been removed by molecular distillation, to vitamin E-deficient powdery feed.
(§3) The bred vitamin E-deficient-rats were divided into 2 groups and fasted for 17 hours, and each rat in one group was orally given 10 mg/0.5 ml γ-tocotrienol dissolved in stripped corn oil, while as the control, each rat in the other group was orally given 10 mg/0.5 ml γ-tocopherol in analogous manner. After the administration, the rats in a urine collection group were placed in a metabolic cage/rat, and their urine was collected at 6-hours intervals for 48 hours during which a collection vessel was cooled on dry ice. The rats in a bile collection group were anesthetized with Nembutal in 2 hours after the administration in consideration of absorption time, and the abdomens of the rats were opened with their back fixed under anesthesia and a canula was inserted into the bile duct. […]

[2] = Amount of γ-CEHC excreted in bile after oral γ-tocotrienol or γ-tocopherol in vitamin E-deficient rats; assay type: in vivo, Sprague-Dawley strain male rats; settings: oral 10 mg/0.5 ml in stripped corn oil, bile collected for 24 hours, versus γ-tocopherol, FIG. 3
Procedure: as §1, §2, §3

[3] = Effect of γ-tocotrienol on urine volume and on excretion of sodium and potassium into urine; assay type: in vivo, SD strain male rats; settings: for volume of urine, corrected with creatinine: high-salt feed groups, FIG. 4
Procedure: Seven-week-old SD strain male rats (n=20) were preliminarily bred with solid feed and divided into 2 groups. One group was given vitamin E-deficient feed (AIN-76) and used as a control group. The other group was given high-salt feed prepared by adding 5% common salt to 1 kg vitamin E-deficient feed and used as a group given high-salt (high-Na) feed. Each animal in both the groups was given 20 g feed/day for 1 week and 25 g feed/day during a period of from the second to fourth weeks. 150 ml of purified water was given as drinking water, and the remainder of the water was measured. After 4 weeks, each group was further divided into 2 groups, and each rat in one group was given 10 mg γ-tocotrienol (control +γ-tocotrienol, High-Na+γ-tocotrienol) dissolved in stripped corn oil while the other group i.e. the control was given stripped corn oil (control, High-Na) for 3 consecutive days respectively, and after administration, their urine, while being frozen on dry ice, was collected at 6-hours intervals for 24 hours. The amounts of sodium and potassium in the urine were determined by the atomic absorption method and the amount of γ-CEHC by the ECD-HPLC method.

For CC(C)=CCC/C(C)=C/CC/C(C)=C/CCC1(C)CCc2cc(O)c(C)c(C)c2O1 (stereo not drawn) [γ-tocotrienol, 2,7,8-trimethyl-2-(4,8,12-trimethyltrideca-3,7,11-trienyl)chroman-6-ol], the “amount of γ-CEHC excreted in urine for a period of up to 48 hours” value [1] was “significantly higher than in the group given γ-tocopherol”, the “γ-CEHC excreted into the bile” value [2] was “larger in the group given γ-tocotrienol than in the group given γ-tocopherol” and the “amount of potassium excreted in urine” value ([3]; 4 groups (control and high-salt feed, with or without 10 mg γ-tocotrienol), atomic absorption method, FIG. 6) was “the influence of γ-tocotrienol administration was not observed”. The “volume of urine, corrected with creatinine” value ([3]; 10 mg γ-tocotrienol for 3 consecutive days versus stripped corn oil, over 24 hours) was “tended to be larger in the group given γ-tocotrienol”, the “volume of urine, corrected with creatinine” value ([3]; 10 mg γ-tocotrienol versus stripped corn oil, 6 to 12 hours after the administration) was “significantly increased for 6 to 12 hours after the administration” and the “amount of sodium excreted in urine” value ([3]; high-salt group, 10 mg γ-tocotrienol versus stripped corn oil, atomic absorption method, FIG. 5) was “significantly larger amount of excreted sodium for a period of up to 12 hours after the administration”.
